Measured values reported in patent publication US20220388964A1 (HiberCell, Inc., priority 2019, published 2022).

The compounds below were run against GCN2 (Homo sapiens, UniProt Q9P2K8) (assay: TR-FRET biochemical assay for inhibition of GCN2 (Example 106, for Example 1-4BB)). Details: Table 8.
GCN2, sequence (Q9P2K8 whole entry): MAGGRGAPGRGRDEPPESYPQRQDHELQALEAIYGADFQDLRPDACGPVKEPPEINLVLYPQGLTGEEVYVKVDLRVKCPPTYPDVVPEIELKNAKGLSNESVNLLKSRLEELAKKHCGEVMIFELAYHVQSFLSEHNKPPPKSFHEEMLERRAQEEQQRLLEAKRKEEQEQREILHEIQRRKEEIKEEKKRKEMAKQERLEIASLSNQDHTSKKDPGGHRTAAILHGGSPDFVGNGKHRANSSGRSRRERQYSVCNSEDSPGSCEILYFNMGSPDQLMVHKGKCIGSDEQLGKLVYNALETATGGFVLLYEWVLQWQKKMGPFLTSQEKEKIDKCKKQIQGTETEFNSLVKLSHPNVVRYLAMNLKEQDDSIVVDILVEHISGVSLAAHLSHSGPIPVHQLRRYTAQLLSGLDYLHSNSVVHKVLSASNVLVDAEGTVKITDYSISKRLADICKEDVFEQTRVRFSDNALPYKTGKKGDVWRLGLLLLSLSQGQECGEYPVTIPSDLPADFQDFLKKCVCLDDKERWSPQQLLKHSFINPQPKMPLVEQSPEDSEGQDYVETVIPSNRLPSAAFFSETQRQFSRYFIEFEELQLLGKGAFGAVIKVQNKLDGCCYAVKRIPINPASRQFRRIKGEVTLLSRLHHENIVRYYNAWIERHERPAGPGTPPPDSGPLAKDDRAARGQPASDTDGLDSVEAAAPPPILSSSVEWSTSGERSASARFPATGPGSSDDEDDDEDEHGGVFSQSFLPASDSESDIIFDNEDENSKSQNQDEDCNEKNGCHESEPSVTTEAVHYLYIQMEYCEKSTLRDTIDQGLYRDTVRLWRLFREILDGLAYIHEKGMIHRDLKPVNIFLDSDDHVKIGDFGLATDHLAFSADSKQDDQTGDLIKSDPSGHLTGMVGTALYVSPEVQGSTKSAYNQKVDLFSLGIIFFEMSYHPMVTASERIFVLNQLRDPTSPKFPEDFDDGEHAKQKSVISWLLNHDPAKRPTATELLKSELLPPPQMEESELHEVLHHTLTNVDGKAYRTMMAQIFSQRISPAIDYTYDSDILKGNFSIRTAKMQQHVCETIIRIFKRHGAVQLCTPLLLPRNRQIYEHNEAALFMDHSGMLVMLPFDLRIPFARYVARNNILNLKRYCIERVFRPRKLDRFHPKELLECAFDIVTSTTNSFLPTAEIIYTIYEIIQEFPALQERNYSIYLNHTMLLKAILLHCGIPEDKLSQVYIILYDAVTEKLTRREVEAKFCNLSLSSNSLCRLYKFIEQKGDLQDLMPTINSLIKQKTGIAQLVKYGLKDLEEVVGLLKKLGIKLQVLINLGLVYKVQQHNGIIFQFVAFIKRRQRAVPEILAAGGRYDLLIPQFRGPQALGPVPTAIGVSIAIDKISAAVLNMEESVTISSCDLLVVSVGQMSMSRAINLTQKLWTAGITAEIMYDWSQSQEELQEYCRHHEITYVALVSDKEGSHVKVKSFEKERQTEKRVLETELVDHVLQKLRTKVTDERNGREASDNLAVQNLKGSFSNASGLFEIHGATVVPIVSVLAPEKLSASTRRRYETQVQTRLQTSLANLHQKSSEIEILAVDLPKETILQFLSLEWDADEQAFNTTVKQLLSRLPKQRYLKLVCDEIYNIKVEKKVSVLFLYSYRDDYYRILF

IC50 [µM]	SMILES
< 0.5	O=S(=O)(Nc1ccc(F)c(-c2ccc3c(-c4ncc[nH]4)n[nH]c3c2F)c1F)c1cc(Cl)ccc1F [Example 2BD, 5-chloro-N-(2,4-difluoro-3-(7-fluoro-3-(1H-imidazol-2-yl)-1H-indazol-6-yl)phenyl)-2-fluorobenzenesulfonamide]
< 0.5	O=S(=O)(Nc1ccc(F)c(-c2ccc3c(-c4ncc[nH]4)n[nH]c3c2F)c1F)c1cccnc1Cl [Example 2BM, 2-chloro-N-(2,4-difluoro-3-(7-fluoro-3-(1H-imidazol-2-yl)-1H-indazol-6-yl)phenyl)-pyridine-3-sulfonamide]
0.5 to 2.5	O=S(=O)(Nc1ccc(F)c(-c2ccc3c(-c4ncc[nH]4)n[nH]c3c2F)c1F)c1cccnc1CO [Example 2Q, N-(2,4-difluoro-3-(7-fluoro-3-(1H-imidazol-2-yl)-1H-indazol-6-yl)phenyl)-2-(hydroxyl-methyl)pyridine-3-sulfonamide]
0.5 to 2.5	O=S(=O)(Nc1ccc(F)c(-c2ccc3c(-c4ncc[nH]4)n[nH]c3c2F)c1F)c1ccc(F)c(F)c1 [Example 2BO, N-(2,4-difluoro-3-(7-fluoro-3-(1H-imidazol-2-yl)-1H-indazol-6-yl)phenyl)-3,4-difluorobenzenesulfonamide]
2.5 to 10	Cc1n[nH]c2cc(-c3c(F)ccc(NS(=O)(=O)c4cc(F)ccc4F)c3F)ccc12 [Example 2CC, N-(2,4-difluoro-3-(3-methyl-1H-indazol-6-yl)phenyl)-2,5-difluorobenzenesulfonamide]
< 0.5	COc1ncc(F)cc1S(=O)(=O)Nc1ccc(F)c(-c2ccc3c(-c4ncc[nH]4)n[nH]c3c2F)c1F [Example 2V, 5-fluoro-N-(2,4-difluoro-3-(7-fluoro-3-(1H-imidazol-2-yl)-1H-indazol-6-yl)phenyl)-2-methoxy-pyridine-3-sulfonamide]
< 0.5	Cc1c(Cl)cccc1S(=O)(=O)Nc1ccc(F)c(-c2ccc3c(-c4ncc[nH]4)n[nH]c3c2F)c1F [Example 2AY, 3-chloro-N-(2,4-difluoro-3-(7-fluoro-3-(1H-imidazol-2-yl)-1H-indazol-6-yl)phenyl)-2-methylbenzenesulfonamide]
< 0.5	Cc1cnc(C)c(S(=O)(=O)Nc2ccc(F)c(-c3ccc4c(-c5ncc[nH]5)n[nH]c4c3F)c2F)c1 [Example 2AH, N-(2,4-difluoro-3-(7-fluoro-3-(1H-imidazol-2-yl)-1H-indazol-6-yl)phenyl)-2,5-dimethyl-pyridine-3-sulfonamide]
< 0.5	O=S(=O)(Nc1ccc(F)c(-c2ccc3c(-c4ncc[nH]4)n[nH]c3c2F)c1F)c1cncc(Cl)c1 [Example 2CE]
< 0.5	COc1ncc(Cl)cc1S(=O)(=O)Nc1ccc(F)c(-c2ccc3c(C(=O)NCCO)n[nH]c3c2F)c1F [Example 2CH, 6-(3-((5-chloro-2-methoxy-pyridine)-3-sulfonamido)-2,6-difluorophenyl)-7-fluoro-N-(2-hydroxyethyl)-1H-indazole-3-carboxamide]
2.5 to 10	CC(C)c1cccc(S(=O)(=O)Nc2ccc(F)c(-c3ccc4c(-c5ncc[nH]5)n[nH]c4c3F)c2F)c1 [Example 2L, N-(2,4-difluoro-3-(7-fluoro-3-(1H-imidazol-2-yl)-1H-indazol-6-yl)phenyl)-3-isopropyl-benzenesulfonamide]
0.5 to 2.5	Cc1ccc(S(=O)(=O)Nc2ccc(F)c(-c3ccc4c(-c5ncc[nH]5)n[nH]c4c3F)c2F)cc1 [Example 1, N-(2,4-difluoro-3-(7-fluoro-3-(1H-imidazol-2-yl)-1H-indazol-6-yl)phenyl)-4-methylbenzenesulfonamide]

Same assay, conditions: Table 9

IC50 [µM]	SMILES
2.5 to 10	O=C(NCCCO)c1n[nH]c2c(F)c(-c3c(F)ccc(NS(=O)(=O)c4cccn5ccnc45)c3F)ccc12 [Example 3AR, 6-(2,6-difluoro-3-(imidazo-[1,2-a]pyridine-8-sulfon-amido)phenyl)-7-fluoro-N-(3-hydroxypropyl)-1H-indazole-3-carboxamide]
2.5 to 10	COc1ncc(F)cc1S(=O)(=O)Nc1ccc(F)c(-c2ccc3c(C(=O)Nc4cccn(C)c4=O)n[nH]c3c2F)c1F [Example 3BW, 6-(2,6-difluoro-3-((5-fluoro-2-methoxypyridine)-3-sulfonamido)phenyl)-7-fluoro-N-(1-methyl-2-oxo-1,2-dihydropyridin-3-yl)-1H-indazole-3-carboxamide]
< 0.5	COc1ncc(F)cc1S(=O)(=O)Nc1cccc(-c2ccc3c(-c4nc(CO)c[nH]4)n[nH]c3c2F)c1F [Example 13, 5-Fluoro-N-(2-fluoro-3-(7-fluoro-3-(4-(hydroxymethyl)-1H-imidazol-2-yl)-1H-indazol-6-yl)phenyl)-2-methoxypyridine-3-sulfonamide]
< 0.5	COc1ncc(F)cc1S(=O)(=O)Nc1ccc(F)c(-c2ccc3c(C(=O)NC[C@H](O)CO)n[nH]c3c2F)c1F [Example 3AI, 6-(2,6-difluoro-3-((5-fluoro-2-methoxypyridine)-3-sulfonamido)phenyl)-N-((R)-2,3-dihydroxypropyl)-7-fluoro-1H-indazole-3-carboxamide]
< 0.5	COc1nc(C)c(Cl)cc1S(=O)(=O)Nc1ccc(F)c(-c2ccc3c(-c4ncc[nH]4)n[nH]c3c2F)c1F [Example 3DD, 5-chloro-N-(2,4-difluoro-3-(7-fluoro-3-(1H-imidazol-2-yl)-1H-indazol-6-yl)phenyl)-2-methoxy-6-methylpyridine-3-sulfonamide]
0.5 to 2.5	COc1ncc(F)cc1S(=O)(=O)Nc1cccc(-c2ccc3c(C(=O)NCC[C@@H](O)CO)n[nH]c3c2F)c1F [Example 3BH, 6-(2-fluoro-3-((5-fluoro-2-methoxypyridine)-3-sulfonamido)phenyl)-N-((R)-3,4-dihydroxybutyl)-7-fluoro-1H-indazole-3-carboxamide]
< 0.5	O=C(NCCCO)c1n[nH]c2c(F)c(-c3c(F)ccc(NS(=O)(=O)c4cc(F)cc5c4CCC5O)c3F)ccc12 (centres unmarked) [Example 4T]
0.5 to 2.5	Cc1ncc(S(=O)(=O)Nc2cc(F)cc(-c3ccc4c(-c5ncc[nH]5)n[nH]c4c3F)c2F)s1 [Example 3CJ, N-(2,5-difluoro-3-(7-fluoro-3-(1H-imidazol-2-yl)-1H-indazol-6-yl)phenyl)-2-methylthiazole-5-sulfonamide]
< 0.5	COc1ncc(Cl)cc1S(=O)(=O)Nc1ccc(F)c(-c2ccc3c(C(=O)NC[C@H]4CCCN4C)n[nH]c3c2F)c1F [Example 3D, 6-(3-((5-chloro-2-methoxy-pyridine)-3-sulfonamido)-2,6-difluorophenyl)-7-fluoro-N-(((R)-1-methylpyrrolidin-2-yl)methyl)-1H-indazole-3-carboxamide]
< 0.5	Cc1c(CO)cc(F)cc1S(=O)(=O)Nc1ccc(F)c(-c2ccc3c(C(N)=O)n[nH]c3c2F)c1F [Example 4G]
< 0.5	COc1ncc(Cl)cc1S(=O)(=O)Nc1ccc(F)c(-c2ccc3c(C(=O)Nc4nn[nH]n4)n[nH]c3c2F)c1F [Example 3CU, 6-(3-((5-chloro-2-methoxy-pyridine)-3-sulfonamido)-2,6-difluorophenyl)-7-fluoro-N-(2H-tetrazol-5-yl)-1H-indazole-3-carboxamide]
< 0.5	COc1ncc(F)cc1S(=O)(=O)Nc1ccc(F)c(-c2ccc3c(C(=O)NCCCO)n[nH]c3c2F)c1F [Example 3R, 6-(2,6-difluoro-3-((5-fluoro-2-methoxypyridine)-3-sulfonamido)phenyl)-7-fluoro-N-(3-hydroxypropyl)-1H-indazole-3-carboxamide]
< 0.5	COc1ncc(F)cc1S(=O)(=O)Nc1ccc(F)c(-c2ccc3c(-c4nc(CO)c[nH]4)n[nH]c3c2F)c1F [Example 3X, N-(2,4-difluoro-3-(7-fluoro-3-(4-(hydroxymethyl)-1H-imidazol-2-yl)-1H-indazol-6-yl)phenl)-5-fluoro-2-methoxypyridine-3-sulfonamide]
< 0.5	Cc1ncc(F)cc1S(=O)(=O)Nc1cc(F)cc(-c2ccc3c(C(N)=O)n[nH]c3c2F)c1F [Example 3CG, 6-(2,5-difluoro-3-((5-fluoro-2-methylpyridine)-3-sulfon-amido)phenyl)-7-fluoro-1H-indazole-3-carboxamide]
< 0.5	COc1ncc(F)cc1S(=O)(=O)Nc1ccc(F)c(-c2ccc3c(C(=O)Nc4cnoc4)n[nH]c3c2F)c1F [Example 3BN, 6-(2,6-difluoro-3-((5-fluoro-2-methoxypyridine)-3-sulfonamido)phenyl)-7-fluoro-N-(isoxazol-4-yl)-1H-indazole-3-carboxamide]
< 0.5	COc1ncc(F)cc1S(=O)(=O)Nc1ccc(F)c(-c2ccc3c(-c4nnc(C)[nH]4)n[nH]c3c2F)c1F [Example 3CK, N-(2,4-difluoro-3-(7-fluoro-3-(5-methyl-4H-1,2,4-triazol-3-yl)-1H-indazol-6-yl)phenyl)-5-fluoro-2-methoxypyridine-3-sulfonamide]
0.5 to 2.5	COc1ncc(Cl)cc1S(=O)(=O)Nc1ccc(F)c(-c2ccc3c(C(=O)Nc4cn[nH]n4)n[nH]c3c2F)c1F [Example 3DF, 6-(3-((5-chloro-2-methoxy-pyridine)-3-sulfonamido)-2,6-difluorophenyl)-7-fluoro-1H-(2H-1,2,3-triazol-4-yl)-1H-indazole-3-carboxamide]
< 0.5	COc1ncc(Cl)cc1S(=O)(=O)Nc1cccc(-c2ncc3c(-c4ncc[nH]4)n[nH]c3c2F)c1F [Example 3AG, 5-chloro-N-(2-fluoro-3-(7-fluoro-3-(1H-imidazol-2-yl)-1H-pyrazolo[4,3-c]pyridin-6-yl)phenyl)-2-methoxy-pyridine-3-sulfonamide]
< 0.5	COc1ncc(Cl)cc1S(=O)(=O)Nc1ccc(F)c(-c2ccc3c(C(=O)Nc4cnoc4)n[nH]c3c2F)c1F [Example 3CV, 6-(3-((5-chloro-2-methoxy-pyridine)-3-sulfonamido)-2,6-difluorophenyl)-7-fluoro-N-(isoxazol-4-yl)-1H-indazole-3-carboxamide]
2.5 to 10	COc1ncccc1S(=O)(=O)Nc1nccc(-c2ccc3c(-c4ncc[nH]4)n[nH]c3c2F)c1C#N [Example 3J, N-(3-cyano-4-(7-fluoro-3-(1H-imidazol-2-yl)-1H-indazol-6-yl)pyridin-2-yl)-2-methoxypyridine-3-sulfonamide]
